Data: US7517840B2, “Optimized perfumery for rinse-off products” (Givaudan Fragrances Corporation, priority 2005, dated 2009)
Entries after “also recorded” stand apart in the source; their conditions may differ. Where two headings read alike, the source gives them in different places.

Experiments:
[1] = cited from earlier work; for exp ODT water: Booleans database; for Odor Detection Threshold: Table 24, Floral fragrance
[2] = GC-MS headspace release profile of perfume in shampoo, 1/100 dilution in water; format: physicochemical; settings: Tropical Fruit Perfume
Description: Experimental Procedure: Individual odorant to be tested was added to 20 g of shampoo formulation (see formula below in Table 4) at 0.1%.
A 10 gram sample of formulation and fragrance was added to an empty 1000 ml pyrex beaker. This beaker was then filled with 1000 ml of 120 F tap water. Beaker with diluted shampoo sample was then immediately placed into a semi-enclosed plexiglass chamber.
Headspace Sampling: Once beaker was placed into chamber a Carboxan SPME field fiber was held at the top-side opening of the chamber over the beaker containing the sample. […] […] Top of plexiglass chamber was held open for entire 5 minutes of headspace sampling.

[3] = Calculated pseudo-acceleration (Γ) of odorants in water, water-air and air
Excerpt: In the analysis of the volatility of odorants, several variables are found to be important. First, the vapor pressure of the odorant is an important measure of its volatility. The product of the odorant's activity coefficient γ in the partition its mole fraction X and its pure vapor pressure value Pv, gives the odorant's relative vapor pressure. A second important factor for volatility is the diffusivity D12 of the odorant in the considered media: water, vapor phase and subsequently air.
Other important variables to consider are the molecular weight Mw, of the odorant and its density in the partition ρl and in the solvent vapor state ρv. The final variable to consider is an energy parameter in the partition state. The energy difference ε12=ε12(polar)−ε12o(non-polar) is proportional to the partition coefficient of an odorant in a polar solvent such as water, and a water immiscible solvent such as octanol, benzene and paraffin liquid. The energy ε12 is called the partition energy and can be correlated to the clogP value of odorants.
The five variables D12, Pv, Mw, ρv and ε12 and the three dimensional variables indicate that there can be 5−3=2 dimensional variables which describe Newton's law. The easiest separation is to break the acceleration vector into 2 dimensional quantities: a frequency or first order rate constant (1/time) and a velocity (distance/time) term.
The velocity group can be formed from the vapor pressure and density. Since pressure has units of mass*distance/distance^2*time^2, and density has units of mass/distance^3, the ratio of the two has units of velocity squared. The square root gives the desired velocity.
The first order rate constant can be formed from the variables Mw, D12 and ε12. Since the partition energy ε12 has dimensions of calories per mole (mass.length^2/mole.time^2) and the diffusivity coefficient D12 has a dimension of distance^2 per time, the ratio yields exactly a molecular weight unit per time t. The energy can be made dimensionless by dividing by the gas constant k and temperature T. The remaining variable D12 can be made to a frequency by dividing by a cross sectional area L^2. A molecular area calculated from the liquid molar volume could represent this area.
Pseudo acceleration values are also closely linked to the ability of an odorant to travel through headspace once it is airborne in addition to its ability to migrate through the water and water-air partitions.

[4] = Randebrock 1986; cited from earlier work
[5] = cited from earlier work

SMILES	GC Abundance ([2]; 20 seconds)	GC Abundance ([2]; 30 seconds)	GC Abundance ([2]; 40 seconds)	GC Abundance ([2]; 50 seconds)	release category by Γ [3]	exp ODT water [1]	also measured
CCOC(=O)C(C)CC (centres unmarked) [ETHYL 2-METHYLBUTYRATE, Ethyl 2-methylbutyrate]	3100	3100	2000	1500	flash-release	0.1-0.3 ppb	ODT ([1]; Table 17, apple note compounds): 50 ppb or less; GC Abundance ([2]; 10 seconds): 3000
CCC=CCCC=CC=O [2,6-NONADIENAL]					flash release		ODT ([1]; Table 26, cucumber-melon note): 50 ppb or less; odor detection threshold values in water [1]: 0.01 ppb
CCOC(=O)CC1(C)OCCO1 [FRUCTONE]	3000	5000	5000	5000			ODT ([1]; Table 17, apple note compounds): 50 ppb or less
CCCC(=O)OCC [ETHYL BUTYRATE, Ethyl butyrate]	2800	2800	2000	800		1 ppb	GC Abundance ([2]; 10 seconds): 2800
CCCCCCCCCCC=O [1-undecanal]							experimental odor detection threshold in air [4]: 0.00054 mg/m^3
C=C(C)[C@H]1CC=C(C)CC1 [d-LIMONENE, d-1-Methyl-4-isopropenyl-1-cyclohexene]	7000	7000	5000	4000	flash release; also recorded: flash-release		GC Abundance ([2]; 5 seconds): 7000; GC Abundance ([2]; 10 seconds): 7000
CC1=CCC(C(C)(C)S)CC1 (centres unmarked)					flash release		ODT ([1]; Table 32, citrus note): 50 ppb or less; Boiling Point ([5]; Table 33): 229 deg C.
CCC=CCCC=CCO [2,6 NONADIEN-1-OL]					sustained release		ODT ([1]; Table 26, cucumber-melon note): 50 ppb or less; odor detection threshold value in water [1]: 1 part per billion
CCCCCC1C(=O)CCC1CC(=O)OC (centres unmarked) [HEDIONE]				4000			Odor Detection Threshold [1]: 50 ppb or less
CC=CC(=O)C1=C(C)C=CCC1(C)C [DAMASCENONE, 1-(2,6,6-Trimethylcyclohexa-1,3-dienyl)-2-buten-1-one]				1000		0.002 ppb	
CC(=O)C=CC1=C(C)CCCC1(C)C [IONONE BETA PURE, 4-(2,6,6-Trimethyl-1-cyclohexen-1-yl)-3-buten-2-one]		2000	10000	18000		4-6 ppb	Odor Detection Threshold [1]: 50 ppb or less

Now from value to compound, other results behind:

GC Abundance ([2]; 20 seconds)	GC Abundance ([2]; 30 seconds)	GC Abundance ([2]; 40 seconds)	GC Abundance ([2]; 50 seconds)	release category by Γ [3]	SMILES	exp ODT water [1]	also measured
4000	4000	3000	1500		CCCC(C)C(=O)OCC (centres unmarked) [MANZANATE, Ethyl 2-methylpentanoate]	0.0030 ppb	ODT ([1]; Table 17, apple note compounds): 50 ppb or less; odor detection threshold in water ([1]; text b188): 0.003 parts per billion; GC Abundance ([2]; 10 seconds): 1000
5000	14000	18000	20000	sustained release	CC(=O)OC1CCCCC1C(C)(C)C (centres unmarked) [VERDOX]		
				sustained release	CC(C)=CCCC(C)=CCS [THIOGERANIOL, 3,7-Dimethyl-2,6-octadien-1-thiol]		ODT ([1]; Table 32, citrus note): 50 ppb or less; Boiling Point ([5]; Table 33): 250 deg C.; Boiling Point [5]: 250 °C
		1000	5000		CC=CC(=O)C1C(C)=CCCC1(C)C (stereo not drawn) [alpha-DAMASCONE, α-1-(2,6,6-Trimethyl-2-cyclohexen-1-yl)-2-buten-1-one]	1.5 ppb	ODT ([1]; Table 17, apple note compounds): 50 ppb or less
18000	18000	18000	18000		C=CC(C)(O)CCC=C(C)C (centres unmarked) [LINALOOL, linalool]		Odor Detection Threshold [1]: 50 ppb or less; GC Abundance ([2]; 10 seconds): 500
				flash release	CCCCC/C=C/CCC=O [TRANS-4-DECEN-1-AL]		ODT ([1]; Table 32, citrus note): 50 ppb or less; Boiling Point ([5]; Table 33): 200 deg C.
10000	14000	14000	14000		CC(C)=CC1CC(C)CCO1 (stereo not drawn) [ROSE OXIDE (HIGH CIS), Tetrahydro-4-methyl-2-(2-methylpropen-1-yl)pyran]	0.5 ppb	
